Assay results reported in BindingDB's records for patent US11220494 (Pfizer Inc., 2022).

Target: Cyclin-dependent kinase 6/G1/S-specific cyclin-D3 (Homo sapiens, UniProt Q00534+P30281)
Experiment: Mobility Shift Assay
Method: The purpose of the CDK6/Cyclin D3 assay is to evaluate the inhibition (% inhibition, Kiapp and Ki values) in the presence of small molecule inhibitors by using a fluorescence based microfluidic mobility shift assay. […] The mobility shift assay electrophoretically separates the fluorescently labeled peptides (substrate and phosphorylated product) following the kinase reaction. Both substrate and product are measured and the ratio of these values is used to generate % conversion of substrate to product by the LabChip EZ Reader. […] The reaction was stopped after 95 minutes by the addition of 50 μL of 30 mM EDTA. Ki determinations were made from a plot of the fractional velocity as a function of inhibitor concentration fit to the Morrison equation with the enzyme concentration as a variable.

Chain of Cyclin-dependent kinase 6/G1/S-specific cyclin-D3 (Q00534 whole entry): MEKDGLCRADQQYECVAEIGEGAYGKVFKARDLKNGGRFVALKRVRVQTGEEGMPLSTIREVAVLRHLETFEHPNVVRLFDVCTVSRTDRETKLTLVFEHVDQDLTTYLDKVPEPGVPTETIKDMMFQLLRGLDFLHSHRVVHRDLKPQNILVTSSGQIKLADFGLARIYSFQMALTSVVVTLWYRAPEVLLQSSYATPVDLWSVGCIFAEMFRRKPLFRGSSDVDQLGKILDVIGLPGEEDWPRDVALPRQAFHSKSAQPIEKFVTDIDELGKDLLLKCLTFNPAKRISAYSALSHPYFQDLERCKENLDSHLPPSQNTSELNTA
Chain of Cyclin-dependent kinase 6/G1/S-specific cyclin-D3 (P30281 whole entry): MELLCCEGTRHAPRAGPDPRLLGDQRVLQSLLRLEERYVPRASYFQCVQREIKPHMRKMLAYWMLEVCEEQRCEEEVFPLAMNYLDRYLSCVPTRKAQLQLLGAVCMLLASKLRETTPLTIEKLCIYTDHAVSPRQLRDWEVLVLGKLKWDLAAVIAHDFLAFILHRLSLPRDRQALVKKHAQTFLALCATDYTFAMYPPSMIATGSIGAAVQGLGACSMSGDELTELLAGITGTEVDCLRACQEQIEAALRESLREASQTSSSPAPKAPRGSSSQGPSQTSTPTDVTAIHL

Ki: 1.4 nM
Compound: CC(C)n1c([C@H](C)O)nc2c(F)cc(-c3cc(N[C@@H]4CCN(S(C)(=O)=O)C[C@H]4O)ncc3Cl)cc21 [US11220494, Example E01]
